The results in this text go back to ChEMBL document CHEMBL1150306, “2-Trifluoroacetylthiophenes, a novel series of potent and selective class II histone deacetylase inhibitors” (Bioorg Med Chem Lett, 2008).

Activity calls are given as the source filed them. The calls are words filed in the database; no cut-off is given here.

The target in assay [1] is T1, Histone deacetylase 3 (Homo sapiens, UniProt O15379). The assay can be described thus: Inhibition of HDAC3.
Assay [2] deals with T2, Histone deacetylase 4 (Homo sapiens, UniProt P56524). As to the kind of experiment: Inhibition of wild type HDAC4 expressed in Escherichia coli.
For assay [3], the target named is Histone deacetylase 4 (Homo sapiens, UniProt P56524, H976Y). The assay can be described thus: Inhibition of HDAC4GOF mutant expressed in Escherichia coli.
The target of assay [4] is T3, Protein deacetylase HDAC6 (Homo sapiens, UniProt Q9UBN7).
T3 sequence (Q9UBN7 whole entry): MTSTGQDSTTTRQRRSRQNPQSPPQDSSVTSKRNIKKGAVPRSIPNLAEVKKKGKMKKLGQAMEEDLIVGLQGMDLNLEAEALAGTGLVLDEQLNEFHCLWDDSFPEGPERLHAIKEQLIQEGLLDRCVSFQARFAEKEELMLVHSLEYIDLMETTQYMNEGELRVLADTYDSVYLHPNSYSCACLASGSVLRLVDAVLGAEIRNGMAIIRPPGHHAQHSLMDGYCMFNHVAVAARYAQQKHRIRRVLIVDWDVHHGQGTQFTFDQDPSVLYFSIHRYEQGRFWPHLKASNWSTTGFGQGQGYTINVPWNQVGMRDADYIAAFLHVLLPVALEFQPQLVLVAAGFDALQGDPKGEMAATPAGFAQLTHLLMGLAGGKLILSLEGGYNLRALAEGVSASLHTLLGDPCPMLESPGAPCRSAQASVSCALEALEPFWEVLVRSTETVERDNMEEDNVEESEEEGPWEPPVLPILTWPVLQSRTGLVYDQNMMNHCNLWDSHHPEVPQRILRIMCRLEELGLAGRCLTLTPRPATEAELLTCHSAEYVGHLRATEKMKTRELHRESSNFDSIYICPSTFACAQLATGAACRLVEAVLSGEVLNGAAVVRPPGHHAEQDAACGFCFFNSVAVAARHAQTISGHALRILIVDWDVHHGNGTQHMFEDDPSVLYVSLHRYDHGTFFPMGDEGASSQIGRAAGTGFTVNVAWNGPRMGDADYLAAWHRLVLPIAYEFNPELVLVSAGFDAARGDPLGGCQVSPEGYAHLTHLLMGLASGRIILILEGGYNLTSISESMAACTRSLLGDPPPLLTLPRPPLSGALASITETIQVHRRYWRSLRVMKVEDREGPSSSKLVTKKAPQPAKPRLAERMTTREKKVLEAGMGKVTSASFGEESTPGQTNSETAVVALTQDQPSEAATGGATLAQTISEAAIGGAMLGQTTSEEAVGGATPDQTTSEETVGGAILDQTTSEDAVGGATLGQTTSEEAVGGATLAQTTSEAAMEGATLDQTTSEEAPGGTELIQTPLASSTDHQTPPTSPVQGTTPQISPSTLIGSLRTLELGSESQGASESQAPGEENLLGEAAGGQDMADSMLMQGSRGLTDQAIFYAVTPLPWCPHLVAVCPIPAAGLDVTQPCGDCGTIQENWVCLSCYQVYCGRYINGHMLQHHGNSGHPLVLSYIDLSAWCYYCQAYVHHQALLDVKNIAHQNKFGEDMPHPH
The assay can be described thus: Inhibition of HDAC6.

For assay [5], the target named is T4, Histone deacetylase 1 (Homo sapiens, UniProt Q13547). The assay can be described thus: Inhibition of HDAC1.
Assay [6] deals with T1, Histone deacetylase 3. The assay can be described thus: Inhibition of HDAC3 at 10 uM.
For assay [7], the system named is T5, Histone deacetylase 4 (Homo sapiens), P56524 [H976Y].
T5 sequence (whole entry): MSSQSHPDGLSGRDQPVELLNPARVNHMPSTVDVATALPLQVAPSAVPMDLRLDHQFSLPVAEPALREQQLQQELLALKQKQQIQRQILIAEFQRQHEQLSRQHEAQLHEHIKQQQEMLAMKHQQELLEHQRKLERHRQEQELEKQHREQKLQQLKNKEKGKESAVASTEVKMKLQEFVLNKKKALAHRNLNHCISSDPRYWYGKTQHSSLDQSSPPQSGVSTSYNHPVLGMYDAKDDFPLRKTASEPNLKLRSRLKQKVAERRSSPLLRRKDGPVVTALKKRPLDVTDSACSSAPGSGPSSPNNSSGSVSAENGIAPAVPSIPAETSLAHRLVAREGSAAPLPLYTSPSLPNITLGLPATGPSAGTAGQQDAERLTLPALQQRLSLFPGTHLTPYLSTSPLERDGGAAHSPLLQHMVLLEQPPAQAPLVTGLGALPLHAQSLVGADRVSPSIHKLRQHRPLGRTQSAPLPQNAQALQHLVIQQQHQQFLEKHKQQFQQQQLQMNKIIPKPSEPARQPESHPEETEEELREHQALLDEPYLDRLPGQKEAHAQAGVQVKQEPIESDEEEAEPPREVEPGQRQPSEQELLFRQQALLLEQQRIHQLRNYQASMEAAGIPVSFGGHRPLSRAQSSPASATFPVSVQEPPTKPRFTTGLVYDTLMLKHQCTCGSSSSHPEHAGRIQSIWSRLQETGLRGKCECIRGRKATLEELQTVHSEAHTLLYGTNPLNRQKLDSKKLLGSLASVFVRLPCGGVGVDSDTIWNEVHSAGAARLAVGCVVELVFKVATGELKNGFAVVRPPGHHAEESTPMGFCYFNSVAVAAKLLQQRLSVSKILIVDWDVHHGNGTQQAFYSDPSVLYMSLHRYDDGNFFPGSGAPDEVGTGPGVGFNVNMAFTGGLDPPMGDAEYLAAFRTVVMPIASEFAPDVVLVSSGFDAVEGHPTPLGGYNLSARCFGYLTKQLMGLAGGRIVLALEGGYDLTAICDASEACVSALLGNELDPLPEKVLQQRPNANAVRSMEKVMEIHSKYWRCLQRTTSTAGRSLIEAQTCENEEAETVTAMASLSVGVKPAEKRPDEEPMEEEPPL
As to the kind of experiment: Inhibition of HDAC4GOF mutant at 10 uM.

Assay [8] has as its target T2, Histone deacetylase 4. The assay can be described thus: Inhibition of wild type HDAC4 at 10 uM.
The target of assay [9] is T4, Histone deacetylase 1. The assay can be described thus: Inhibition of HDAC1 at 10 uM.

T2 sequence (P56524 whole entry): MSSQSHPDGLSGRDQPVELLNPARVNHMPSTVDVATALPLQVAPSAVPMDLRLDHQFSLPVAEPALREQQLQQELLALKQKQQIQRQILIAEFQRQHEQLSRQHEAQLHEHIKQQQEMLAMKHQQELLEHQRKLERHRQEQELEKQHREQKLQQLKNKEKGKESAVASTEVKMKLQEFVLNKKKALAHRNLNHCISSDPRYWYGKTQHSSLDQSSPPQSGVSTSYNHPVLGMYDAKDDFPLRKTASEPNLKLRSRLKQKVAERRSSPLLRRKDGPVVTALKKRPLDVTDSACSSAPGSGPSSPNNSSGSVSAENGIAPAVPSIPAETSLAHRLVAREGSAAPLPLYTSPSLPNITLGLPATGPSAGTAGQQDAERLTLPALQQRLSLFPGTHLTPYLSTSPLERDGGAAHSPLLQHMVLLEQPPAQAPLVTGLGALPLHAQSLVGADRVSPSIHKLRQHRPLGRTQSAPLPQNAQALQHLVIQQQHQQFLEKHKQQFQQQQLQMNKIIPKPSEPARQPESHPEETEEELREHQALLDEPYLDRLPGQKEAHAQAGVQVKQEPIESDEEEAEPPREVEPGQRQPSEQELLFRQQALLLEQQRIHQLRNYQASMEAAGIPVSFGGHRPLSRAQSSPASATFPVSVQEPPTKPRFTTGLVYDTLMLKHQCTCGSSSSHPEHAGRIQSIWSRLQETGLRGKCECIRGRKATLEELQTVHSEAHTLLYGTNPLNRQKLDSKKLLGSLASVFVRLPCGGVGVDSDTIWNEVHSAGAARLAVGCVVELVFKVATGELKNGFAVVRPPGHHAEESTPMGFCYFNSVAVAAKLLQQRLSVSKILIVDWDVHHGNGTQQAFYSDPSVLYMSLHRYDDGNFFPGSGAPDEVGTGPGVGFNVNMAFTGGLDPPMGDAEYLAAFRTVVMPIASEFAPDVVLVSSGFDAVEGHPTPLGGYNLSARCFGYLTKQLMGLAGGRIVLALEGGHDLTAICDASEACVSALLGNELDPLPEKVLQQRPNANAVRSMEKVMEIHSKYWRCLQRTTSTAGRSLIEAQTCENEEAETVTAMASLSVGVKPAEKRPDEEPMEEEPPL
T4 sequence (Q13547 whole entry): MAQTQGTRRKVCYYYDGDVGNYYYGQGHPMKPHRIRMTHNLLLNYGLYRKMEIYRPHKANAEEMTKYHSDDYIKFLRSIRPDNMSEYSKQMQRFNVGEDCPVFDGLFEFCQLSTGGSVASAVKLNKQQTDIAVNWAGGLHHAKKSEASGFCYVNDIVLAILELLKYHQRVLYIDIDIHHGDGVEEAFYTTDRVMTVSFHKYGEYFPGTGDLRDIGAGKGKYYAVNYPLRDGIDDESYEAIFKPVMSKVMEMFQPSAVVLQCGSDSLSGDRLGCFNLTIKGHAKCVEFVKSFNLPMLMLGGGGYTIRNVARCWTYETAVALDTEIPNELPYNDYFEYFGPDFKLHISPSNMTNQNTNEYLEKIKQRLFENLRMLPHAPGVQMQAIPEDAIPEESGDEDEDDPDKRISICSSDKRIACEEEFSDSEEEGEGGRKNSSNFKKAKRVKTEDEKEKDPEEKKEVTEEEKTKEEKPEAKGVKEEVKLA
T1 sequence (O15379 whole entry): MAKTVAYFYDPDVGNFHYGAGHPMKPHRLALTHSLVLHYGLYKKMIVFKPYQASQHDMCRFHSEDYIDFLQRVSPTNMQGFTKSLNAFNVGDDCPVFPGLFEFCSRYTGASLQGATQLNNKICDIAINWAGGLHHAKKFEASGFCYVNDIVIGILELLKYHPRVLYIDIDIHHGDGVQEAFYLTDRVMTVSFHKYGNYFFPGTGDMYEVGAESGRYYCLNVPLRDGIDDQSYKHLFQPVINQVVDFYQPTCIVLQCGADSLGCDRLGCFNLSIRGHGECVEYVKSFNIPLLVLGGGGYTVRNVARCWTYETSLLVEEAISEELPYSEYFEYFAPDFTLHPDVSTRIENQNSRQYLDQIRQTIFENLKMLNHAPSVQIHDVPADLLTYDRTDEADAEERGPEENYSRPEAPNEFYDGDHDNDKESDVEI

Regarding `CN(Cc1ccccc1)Cc1ccc(C(=O)C(F)(F)F)s1`, the IC50 in assay [1] was found to be 4.6 µM; in assay [2], 970 nM; in [3] it was 1100 nM; in [4] it was 490 nM; in assay [5], 3100 nM.

For `O=C(NCC1CCCCC1)c1cccc(C(=O)C(F)(F)F)c1`, the midpoint of inhibition in assay [4], the IC50, lay at 4200 nM. The result in assay [6], in [7], in assay [8] and in assay [9] was inactive.

Take `O=C(NCCc1ccccc1)c1ccc(C(=O)C(F)(F)F)s1`: the IC50 in assay [1] amounted to 1.7 µM; in [2] it was 330 nM; in assay [3] it was 180 nM; in assay [4] it was 210 nM; in assay [5] it was 880 nM.

In the case of `C[C@@H](NCc1ccc(C(=O)C(F)(F)F)s1)c1ccccc1`, the half-inhibitory concentration (IC50) in [2] turned out to be 3700 nM; in assay [3] it was 3500 nM; in [4], 840 nM. The result in assay [6] and in assay [9] was inactive.

`CCOC(=O)c1ccc(C(=O)C(F)(F)F)s1`: the IC50 in assay [1] amounted to 3.5 µM; in assay [2], 320 nM; in assay [3] it was 350 nM; in assay [4] it was 550 nM; in [5], 5700 nM.

On to `O=C(NCC1CCCCC1)c1cc(C(=O)C(F)(F)F)cs1`, for which the IC50 was 3300 nM in assay [2], 2400 nM in [3] and 2000 nM in assay [4]. The result in assay [6] was inactive. For the same molecule, the inhibition in [9] came out at 40%.

Turning to `O=C(NCC1CCCCC1)c1cnc(C(=O)C(F)(F)F)s1`, the IC50 in assay [1] was 7.6 µM; in assay [2] it was 850 nM; in [3] it was 2900 nM; in assay [4] it was 1500 nM. In addition, in assay [9], the outcome was inactive.

For the molecule `C[C@@H](NC(=O)c1ccc(C(=O)C(F)(F)F)s1)c1ccccc1`, the IC50 in [1] is 0.23 µM; in assay [2] it was 76 nM; in [3], 160 nM; in [4], 360 nM; in assay [5] it was 320 nM.

`CCNC(=O)c1ccc(C(=O)C(F)(F)F)s1`: the IC50 in [2] was 1700 nM; in assay [3], 1000 nM; in assay [4], 310 nM; in assay [5], 7100 nM.

As for `CN(Cc1ccccc1)S(=O)(=O)c1ccc(C(=O)C(F)(F)F)s1`, the results for the IC50 in assay [2], in assay [3] and in [4] were 340 nM, 1200 nM and 730 nM, respectively. Moreover, the result in assay [6] and in [9] was inactive.

Turning to `O=C(c1ccc(C(=O)C(F)(F)F)s1)N1CCc2ccccc21`, the IC50 in assay [1] was 1.7 µM; in assay [2], 130 nM; in assay [3] it was 300 nM; in assay [4], 200 nM; in [5], 2000 nM.

`CN(Cc1ccccc1)C(=O)c1cnc(C(=O)C(F)(F)F)s1`: the IC50 is 7.3 µM in [1], 760 nM in assay [2], 2200 nM in assay [3] and 1300 nM in [4]. This molecule showed an inhibition in assay [9] of 46%.

With `CN(Cc1ccccc1)C(=O)c1ccc(C(=O)C(F)(F)F)s1`, the IC50 in assay [1] was found to be 1.2 µM; in assay [2] it was 510 nM; in assay [3] it was 170 nM; in assay [4] it was 230 nM; in assay [5] it was 1800 nM.

For the molecule `CN(Cc1ccccc1)C(=O)c1cc(C(=O)C(F)(F)F)cs1`, the results for the IC50 in assay [2], in assay [3] and in assay [4] were 1700 nM, 2500 nM and 640 nM, respectively. Besides, the outcome in assay [6] and in assay [9] was inactive.

Consider `CN(Cc1ccccc1)S(=O)(=O)c1csc(C(=O)C(F)(F)F)c1`, for which the concentration for half-maximal inhibition (IC50) came to 9400 nM in assay [2] and 2500 nM in assay [4]. Moreover, the result in assay [6], in assay [7] and in assay [9] was inactive.

For `O=C(c1ccc(C(=O)C(F)(F)F)[nH]1)N1CCc2ccccc21`, in [4], the IC50 was determined as 880 nM. The result in assay [6], in assay [7] and in assay [9] was inactive. In assay [8], this molecule returned an inhibition of 47%.

Regarding `CC(=O)c1ccc(C(=O)N[C@H](C)c2ccccc2)s1`, the IC50 in assay [4] is 6900 nM. Also, the outcome in [6], in assay [7], in [8] and in assay [9] was inactive.

`C[C@H](NC(=O)c1ccc(C(=O)C(F)(F)F)s1)c1ccccc1`: the concentration for half-maximal inhibition (IC50) is 9.4 µM in assay [1]; 170 nM in assay [2]; 280 nM in assay [3]; 210 nM in [4]; 5300 nM in assay [5].

Regarding `CCOC(=O)c1ccc(C(=O)C(F)(F)F)o1`, the figures for the IC50 in assay [2], in assay [3] and in assay [4] were 2500 nM, 3100 nM and 550 nM, respectively. Moreover, in assay [6], the outcome was inactive. Further, the inhibition in assay [9] came out at 48%.

As to `COc1ccc(CNC(=O)c2ccc(C(=O)C(F)(F)F)s2)cc1`, the IC50 in assay [1] came to 0.12 µM; in assay [2] it was 180 nM; in assay [3] it was 70 nM; in [4], 240 nM; in assay [5], 210 nM.

With `O=C(c1ccc(C(=O)N2CCc3ccccc32)s1)C(F)F`, the IC50 in assay [2] amounted to 7600 nM; in assay [3], 420 nM; in [4], 15 nM; in assay [5] it was 9700 nM. Moreover, in assay [6], the inhibition was 42%.

Turning to `O=C(NCC1CCCCC1)c1ccc(C(=O)C(F)(F)F)s1`, the IC50 in [1] amounted to 3.1 µM; in [2], 400 nM; in assay [3], 350 nM; in assay [4] it was 460 nM; in [5], 2900 nM.

Turning to `COc1ccc(COCc2ccc(C(=O)C(F)(F)F)s2)cc1`, the IC50 in [2] amounted to 5500 nM; in [3], 2700 nM; in assay [4] it was 410 nM. Also, the result in [6] and in assay [9] was inactive.

`O=C(NCC1CCCCC1)c1ccc(C(=O)C(F)(F)F)cc1` gave an IC50 in assay [4] of 2500 nM. The result in assay [6] and in [9] was inactive. Also, the values for the inhibition in assay [7] and in [8] were 31% and 32%, respectively.

One may read the IC50 as the midpoint of a concentration-inhibition curve. High values mean weaker potency, low ones greater potency. Usually inhibition stands for the change of the read-out against control, counted positive when it falls. Low values mean a response near the control, high ones a response far below the control.
